Data reported in US10131652B2, “Pyrimidinyloxy benzene derivatives as herbicides” (E. I. DU PONT DE NEMOURS AND COMPANY, priority 2014, dated 2018).
Where two headings read alike, the source gives them in different places.

What was measured:
Type in all cases: in vivo
[1] = system: Italian ryegrass (Lolium multiflorum); assay: Test B pre-/postemergence plant response
In short: (§1)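 Seeds in loam–sand blend given preemergence soil spray; separately, plants at one- to two-leaf stage (2–10 cm) sprayed postemergence, compounds in non-phytotoxic solvent with surfactant. Injury rated visually versus untreated controls after ~10 days in greenhouse, 0 (no effect) to 100 (complete control).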

corn (Zea mays) = assay: Test B pre-/postemergence plant response; conditions: Zea mays, post-emergence, 240 h
In short: as §1

[2] = system: barnyardgrass (Echinochloa crus-galli); assay: Test B pre-/postemergence plant response; conditions: for pest or weed control at 500 g/ha: 500 g ai/ha
In short: as §1

[3] = system: pigweed (Amaranthus retroflexus); assay: Test B pre-/postemergence plant response; conditions: for pest or weed control at 500 g/ha: 500 g ai/ha
In short: as §1

[4] = system: ragweed (common ragweed, Ambrosia elatior); assay: Test B pre-/postemergence plant response
In short: as §1

[5] = system: giant foxtail (Setaria faberii); assay: Test B pre-/postemergence plant response; conditions: for pest or weed control at 500 g/ha: 500 g ai/ha
In short: as §1

[6] = system: wheat (Triticum aestivum); assay: Test B pre-/postemergence plant response; conditions: Triticum aestivum, post-emergence, 240 h, read-out: Plant response rating, Wheat
In short: as §1

kochia (Kochia scoparia) [7] = assay: Test B pre-/postemergence plant response
In short: as §1

wild oat (Avena fatua) = assay: Test D postemergence plant response; conditions: Avena fatua, post-emergence
In short: (§2)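 Scores reflect visual plant response relative to untreated controls on a 0 to 100 scale, where 100 means complete control. Treatment was postemergence on 2–18 cm plants in peat-based potting medium, with greenhouse assessment 13–15 days later.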

[8] = system: chickweed (common chickweed, Stellaria media); assay: Test D postemergence plant response; conditions: Stellaria media, post-emergence
In short: as §2

kochia (Kochia scoparia) [9] = assay: Test D postemergence plant response; conditions: Bassia scoparia, post-emergence
In short: as §2

[10] = system: small-flower umbrella sedge (Cyperus difformis); assay: Test C flooded paddy test plant response; conditions: Cyperus difformis; Flood, 250 g ai/ha; scale of 0 to 100 where 0 is no effect and 100 is complete control; 13 to 15 days; read-out: Sedge, Umbrella plant response rating
In short: (§3)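 Plants grown to 2-leaf stage, flooded 3 cm above soil; compounds applied directly into paddy water, depth kept throughout. Visual rating versus controls after 13 to 15 days in greenhouse, 0 (no effect) to 100 (complete control).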

[11] = system: barnyardgrass (Echinochloa crus-galli); assay: Test C flooded paddy test plant response; conditions: Echinochloa crus-galli; Flood, 250 g ai/ha; scale of 0 to 100 where 0 is no effect and 100 is complete control; 13 to 15 days; read-out: Barnyardgrass plant response rating
In short: as §3

[12] = system: ducksalad (Heteranthera limosa); assay: Test C flooded paddy test plant response; conditions: Heteranthera limosa; Flood, 250 g ai/ha; scale of 0 to 100 where 0 is no effect and 100 is complete control; 13 to 15 days; read-out: Ducksalad plant response rating
In short: as §3

rice (Oryza sativa) = assay: Test C flooded paddy test plant response; conditions: Oryza sativa; Flood, 250 g ai/ha; scale of 0 to 100 where 0 is no effect and 100 is complete control; 13 to 15 days; read-out: Rice plant response rating
In short: as §3

[13] = system: galium (catchweed bedstraw, Galium aparine); assay: Test B postemergence plant response
In short: (§4)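 Weeds grown in loam soil/sand pots were sprayed postemergence at 2 to 10 cm height, one- to two-leaf stage. After approximately 10 days in greenhouse, injury was rated visually against untreated controls on a 0 (no effect) to 100 (complete control) scale; dash means no test result.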

[14] = system: blackgrass (Alopecurus myosuroides); assay: Test B postemergence plant response
In short: as §4

[15] = 125 g ai/ha, postemergence, 0 to 100 scale, 0 no effect, 100 complete control
[16] = Postemergence, 500 g ai/ha, 0 to 100 scale (0 no effect, 100 complete control)
[17] = Preemergence, 125 g ai/ha, 0 to 100 scale (0 no effect, 100 complete control)
[18] = Preemergence, 500 g ai/ha, 0 to 100 scale where 0 is no effect and 100 is complete control

Fc1cccc(Oc2ncc(Cl)cn2)c1-c1cc(C(F)(F)F)on1 [Compound 168, 5-chloro-2-[2-[5-(trifluoromethyl)-3-isoxazolyl]-3-fluorophenoxy]pyrimidine] was tested, and the “Plant response rating, Ryegrass, Italian” value [1, 15] was 90, the “Plant response rating, Ryegrass, Italian” value [1, 16] was 90 and the “Ryegrass, Italian plant response rating” value [1, 17] was 80. For the same compound, the “Plant response rating, Ryegrass, Italian” value [1, 18] was 100, the Corn plant response rating (crop injury, 0 = no effect, 100 = complete kill) at 125 g/ha (corn (Zea mays); [15]) was 100% and the Corn plant response rating (crop injury, 0 = no effect, 100 = complete kill) at 500 g/ha (corn (Zea mays); [16]) was 100%. It also gave a pest or weed control at 125 g/ha ([2]; Echinochloa crus-galli, post-emergence, 240 h, 125 g ai/ha, postemergence, 0 to 100 scale, 0 no effect, 100 complete control, read-out: Plant response rating, Barnyardgrass) of 100%, a pest or weed control at 500 g/ha ([2]; Echinochloa crus-galli, post-emergence, 240 h, Postemergence, 0 to 100 scale (0 no effect, 100 complete control), read-out: Plant response rating, Barnyardgrass) of 100% and a pest or weed control at 500 g/ha ([2]; Echinochloa crus-galli, pre-emergence, 240 h, Preemergence, 0 to 100 scale where 0 is no effect and 100 is complete control, read-out: Plant response rating, Barnyardgrass) of 100%. For the same compound, the “Barnyardgrass plant response rating” value [2, 17] was 100, the pest or weed control at 125 g/ha ([3]; Amaranthus retroflexus, post-emergence, 240 h, 125 g ai/ha, postemergence, 0 to 100 scale, 0 no effect, 100 complete control, read-out: Plant response rating, Pigweed) was 100% and the pest or weed control at 500 g/ha ([3]; Amaranthus retroflexus, post-emergence, 240 h, Postemergence, 0 to 100 scale (0 no effect, 100 complete control), read-out: Plant response rating, Pigweed) was 100%. The pest or weed control at 500 g/ha ([3]; Amaranthus retroflexus, pre-emergence, 240 h, Preemergence, 0 to 100 scale where 0 is no effect and 100 is complete control, read-out: Plant response rating, Pigweed) was 100%, the “Pigweed plant response rating” value [3, 17] was 100 and the “Plant response rating, Ragweed” value [4, 15] was 90. The “Plant response rating, Ragweed” value [4, 16] was 90, the “Ragweed plant response rating” value [4, 17] was 70 and the “Plant response rating, Ragweed” value [4, 18] was 80. For the same compound, the “Foxtail, Giant plant response rating” value [5, 17] was 100, the pest or weed control at 125 g/ha ([5]; Setaria faberi, post-emergence, 240 h, 125 g ai/ha, postemergence, 0 to 100 scale, 0 no effect, 100 complete control, read-out: Plant response rating, Foxtail, Giant) was 100% and the pest or weed control at 500 g/ha ([5]; Setaria faberi, post-emergence, 240 h, Postemergence, 0 to 100 scale (0 no effect, 100 complete control), read-out: Plant response rating, Foxtail, Giant) was 100%. It also gave a pest or weed control at 500 g/ha ([5]; Setaria faberi, pre-emergence, 240 h, Preemergence, 0 to 100 scale where 0 is no effect and 100 is complete control, read-out: Plant response rating, Foxtail, Giant) of 100%, a plant injury at 125 g/ha [6, 15] of 100% and a plant injury at 500 g/ha [6, 16] of 100%. For the same compound, the “Plant response rating, Kochia” value (kochia (Kochia scoparia) [7]; [15]) was 90, the “Plant response rating, Kochia” value (kochia (Kochia scoparia) [7]; [16]) was 90 and the “Kochia plant response rating” value (kochia (Kochia scoparia) [7]; [17]) was 100. The “Plant response rating, Kochia” value (kochia (Kochia scoparia) [7]; [18]) was 100, the pest or weed control at 31 g/ha (wild oat (Avena fatua); 31 g ai/ha, scale 0 to 100 (0 no effect, 100 complete control), read-out: Oat, Wild plant response rating) was 10% and the pest or weed control at 62 g/ha (wild oat (Avena fatua); 62 g ai/ha, scale 0 to 100, 0 no effect, 100 complete control, read-out: Plant response rating, Oat, Wild) was 20%. For the same compound, the pest or weed control at 125 g/ha (wild oat (Avena fatua); 125 g ai/ha, scale 0 to 100, 0 no effect, 100 complete control, read-out: Plant response rating, Oat, Wild) was 30%, the pest or weed control at 16 g/ha ([8]; 16 g ai/ha, scale 0 to 100 (0 no effect, 100 complete control), read-out: Chickweed plant response rating) was 65% and the pest or weed control at 31 g/ha ([8]; 31 g ai/ha, scale 0 to 100 (0 no effect, 100 complete control), read-out: Chickweed plant response rating) was 98%. It also gave a pest or weed control at 62 g/ha ([8]; 62 g ai/ha, scale 0 to 100, 0 no effect, 100 complete control, read-out: Plant response rating, Chickweed) of 100%, a pest or weed control at 125 g/ha ([8]; 125 g ai/ha, scale 0 to 100, 0 no effect, 100 complete control, read-out: Plant response rating, Chickweed) of 100% and a pest or weed control at 31 g/ha (kochia (Kochia scoparia) [9]; 31 g ai/ha, scale 0 to 100 (0 no effect, 100 complete control), read-out: Kochia plant response rating) of 100%. For the same compound, the pest or weed control at 62 g/ha (kochia (Kochia scoparia) [9]; 62 g ai/ha, scale 0 to 100, 0 no effect, 100 complete control, read-out: Plant response rating, Kochia) was 100%, the pest or weed control at 125 g/ha (kochia (Kochia scoparia) [9]; 125 g ai/ha, scale 0 to 100, 0 no effect, 100 complete control, read-out: Plant response rating, Kochia) was 100% and the pest or weed control at 250 g/ha [10] was 90%. The pest or weed control at 250 g/ha [11] was 90%, the pest or weed control at 250 g/ha [12] was 90% and the plant injury at 250 g/ha (rice (Oryza sativa)) was 40%. The “Plant response rating, Galium” value [13, 15] was 100, the “Plant response rating, Galium” value [13, 16] was 100 and the “Plant response rating, Blackgrass” value [14, 15] was 90. The “Plant response rating, Blackgrass” value [14, 16] was 90.
